Measurements taken from ChEMBL document CHEMBL1201862, “PubChem BioAssay data set” (2004).
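48-hour exposure; five concentrations; linearly interpolated endpoints. At the GI50, growth is halved.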 The source made the active and inactive calls. Cut-off read from the data, not from the text of the source: active = GI50 up to about 1.1 µM and inactive = higher.

How the values were obtained:
Assay in all cases: growth of human tumour cells (NCI), 48 h
[1] = system: A498
[2] = system: NCI-H226
[3] = system: UACC-62
[4] = system: UACC-257
[5] = system: K562
[6] = system: OVCAR-4
[7] = system: SNB-75
[8] = system: EKVX
[9] = system: SF-268
[10] = system: CCRF-CEM
[11] = system: SK-MEL-2
[12] = system: HL-60
[13] = system: HCC 2998
[14] = system: MCF7
[15] = system: NCI/ADR-RES
[16] = system: MDA-N
[17] = system: PC-3
[18] = system: MDA-MB-435

Row | Compound | GI50 [1] | GI50 [2] | GI50 [3] | GI50 [4] | GI50 [5] | GI50 [6] | GI50 [7] | GI50 [8] | GI50 [9] | GI50 [10] | GI50 [11] | GI50 [12] | GI50 [13] | GI50 [14] | GI50 [15] | GI50 [16] | GI50 [17] | GI50 [18]
1 | C/C(=N\NC(=O)CC(=O)N(C(=O)c1ccc(Cl)cc1)c1ccc(C)cc1)c1ccccc1O | 73.6 µM (inactive) | 77.6 µM (inactive) | > 100 µM (inactive) | > 100 µM (inactive) | > 100 µM (inactive) | 1.67 µM (inactive) | 18.2 µM (inactive) | 6.79 µM (inactive) | 28.1 µM (inactive) | 5.45 µM (inactive) | > 100 µM (inactive) | – | – | – | – | – | – | –
2 | CC[N+](C)(C)c1ccc(C(=C2C=CC(=[N+](C)C)C=C2)c2ccc(N(C)C)cc2)cc1 | 15.9 µM (inactive) | 19.7 µM (inactive) | 6.55 µM (inactive) | 13.2 µM (inactive) | 3.12 µM (inactive) | 15.1 µM (inactive) | 4.76 µM (inactive) | 4.97 µM (inactive) | 10.8 µM (inactive) | 7.05 µM (inactive) | 21.1 µM (inactive) | 2.4 µM (inactive) | 6.17 µM (inactive) | – | – | – | – | –
3 | CC(=O)SCCC1c2[nH]c3ccccc3c2CCN1O (stereo not given) | – | – | > 100 µM (inactive) | > 100 µM (inactive) | 32.4 µM (inactive) | > 100 µM (inactive) | 18.7 µM (inactive) | > 100 µM (inactive) | > 100 µM (inactive) | 31.8 µM (inactive) | > 100 µM (inactive) | 36.6 µM (inactive) | 85.1 µM (inactive) | – | – | – | – | –
4 | O=[PH](O)c1cccnc1 | > 100 µM (inactive) | > 100 µM (inactive) | > 100 µM (inactive) | > 100 µM (inactive) | > 100 µM (inactive) | > 100 µM (inactive) | > 100 µM (inactive) | > 100 µM (inactive) | > 100 µM (inactive) | > 100 µM (inactive) | – | > 100 µM (inactive) | > 100 µM (inactive) | – | – | – | – | –
5 | Cn1c(=O)c(C(=O)NC(=O)OCc2ccccc2)cn(CCSCCOC(=O)NCCCCCCNC(=O)OCCSCCn2cc(C(=O)NC(=O)OCc3ccccc3)c(=O)n(C)c2=O)c1=O | > 100 µM (inactive) | > 100 µM (inactive) | > 100 µM (inactive) | – | > 100 µM (inactive) | > 100 µM (inactive) | 17.8 µM (inactive) | > 100 µM (inactive) | 84.9 µM (inactive) | > 100 µM (inactive) | > 100 µM (inactive) | > 100 µM (inactive) | > 100 µM (inactive) | – | – | – | – | –
6 | COC(=O)C12OCC34C(CC5C(C)C6=CC(=O)OC6=CC5(C)C3C(O)C1O)OC(=O)C(OC(C)=O)C24 (stereo not given) | 21.2 µM (inactive) | 24.8 µM (inactive) | 12.9 µM (inactive) | 14.1 µM (inactive) | 14.7 µM (inactive) | 18.1 µM (inactive) | 0.887 µM (active) | 16.7 µM (inactive) | 17 µM (inactive) | 6.37 µM (inactive) | 10.1 µM (inactive) | 12.1 µM (inactive) | 16.1 µM (inactive) | – | – | – | – | –
7 | O=S1(=O)CCCS(=O)(=O)C(c2ccccc2)=C1c1ccccc1 | > 100 µM (inactive) | 56.5 µM (inactive) | 29 µM (inactive) | 69.7 µM (inactive) | 31.9 µM (inactive) | 23.3 µM (inactive) | 27.5 µM (inactive) | > 100 µM (inactive) | > 100 µM (inactive) | 32.1 µM (inactive) | 42.6 µM (inactive) | 18.6 µM (inactive) | 18.5 µM (inactive) | – | – | – | – | –
8 | CC(=O)/C(=C\c1ccccc1O)C(=O)Nc1ccccc1C | – | 27.4 µM (inactive) | 20 µM (inactive) | 31.9 µM (inactive) | 4.06 µM (inactive) | 29.4 µM (inactive) | – | 36 µM (inactive) | 26 µM (inactive) | 14.3 µM (inactive) | 18.9 µM (inactive) | 9.64 µM (inactive) | 15.7 µM (inactive) | – | – | – | – | –
9 | COc1cc(C(C)O)c[n+](CCc2c[nH]c3ccccc23)c1 (stereo not given) | > 100 µM (inactive) | – | > 100 µM (inactive) | > 100 µM (inactive) | > 100 µM (inactive) | > 100 µM (inactive) | 89.9 µM (inactive) | 48.3 µM (inactive) | 27.1 µM (inactive) | > 100 µM (inactive) | > 100 µM (inactive) | > 100 µM (inactive) | > 100 µM (inactive) | – | – | – | – | –
10 | N#Cc1ccc(C2SCc3nc4ccccc4n32)cc1 (stereo not given) | 58.7 µM (inactive) | – | 50.7 µM (inactive) | > 100 µM (inactive) | 41.6 µM (inactive) | 83.2 µM (inactive) | 38.5 µM (inactive) | 69.3 µM (inactive) | > 100 µM (inactive) | > 100 µM (inactive) | > 100 µM (inactive) | 31.3 µM (inactive) | > 100 µM (inactive) | – | – | – | – | –
11 | COc1ccc(/C=C2\C(=O)N(C(=O)c3ccc(NC(C)=O)cc3)N=C2C)cc1 | – | > 100 µM (inactive) | – | > 100 µM (inactive) | > 100 µM (inactive) | > 100 µM (inactive) | > 100 µM (inactive) | > 100 µM (inactive) | > 100 µM (inactive) | > 100 µM (inactive) | > 100 µM (inactive) | > 100 µM (inactive) | > 100 µM (inactive) | – | – | – | – | –
12 | CN1CC[C@]2(C)c3c(O)cccc3CC3CCCC1C32C (stereo not given in full) | > 100 µM (inactive) | > 100 µM (inactive) | > 100 µM (inactive) | > 100 µM (inactive) | 91.6 µM (inactive) | – | 45.4 µM (inactive) | > 100 µM (inactive) | > 100 µM (inactive) | > 100 µM (inactive) | > 100 µM (inactive) | 96.2 µM (inactive) | 15.8 µM (inactive) | – | – | – | – | –
13 | CC1=NN(C(=O)Cc2ccccc2)C(=O)/C1=C\c1cccc(O)c1 | – | > 100 µM (inactive) | – | > 100 µM (inactive) | > 100 µM (inactive) | > 100 µM (inactive) | > 100 µM (inactive) | > 100 µM (inactive) | > 100 µM (inactive) | > 100 µM (inactive) | > 100 µM (inactive) | > 100 µM (inactive) | > 100 µM (inactive) | – | – | – | – | –
14 | CC1(Br)C(=O)NC(=O)N([C@H]2C[C@H](O)[C@@H](CO)O2)C1N=[N+]=[N-] (stereo not given in full) | > 100 µM (inactive) | > 100 µM (inactive) | > 100 µM (inactive) | > 100 µM (inactive) | > 100 µM (inactive) | > 100 µM (inactive) | > 100 µM (inactive) | > 100 µM (inactive) | > 100 µM (inactive) | > 100 µM (inactive) | > 100 µM (inactive) | > 100 µM (inactive) | > 100 µM (inactive) | – | – | – | – | –
15 | Cc1c(C(=O)O)n(C)c(=O)n(C)c1=O | > 100 µM (inactive) | > 100 µM (inactive) | > 100 µM (inactive) | > 100 µM (inactive) | > 100 µM (inactive) | > 100 µM (inactive) | > 100 µM (inactive) | > 100 µM (inactive) | > 100 µM (inactive) | > 100 µM (inactive) | > 100 µM (inactive) | > 100 µM (inactive) | > 100 µM (inactive) | – | – | – | – | –
16 | O=C(NO)c1ccc([N+](=O)[O-])cc1 | 21.9 µM (inactive) | 39.5 µM (inactive) | 19.7 µM (inactive) | 28.6 µM (inactive) | 31 µM (inactive) | – | 23.9 µM (inactive) | 27.1 µM (inactive) | > 100 µM (inactive) | 26 µM (inactive) | 32.1 µM (inactive) | 20.7 µM (inactive) | 37.8 µM (inactive) | – | – | – | – | –
17 | Cc1ccc(N2C(=O)C(Cl)=C(Cl)C2=O)cc1 | > 100 µM (inactive) | > 100 µM (inactive) | > 10 µM (inactive) | 19.1 µM (inactive) | 18.7 µM (inactive) | 19.2 µM (inactive) | 22.5 µM (inactive) | 21.5 µM (inactive) | 17.9 µM (inactive) | 5.11 µM (inactive) | > 100 µM (inactive) | – | 34.4 µM (inactive) | – | – | – | – | –
18 | CC(C)(C)C1=C(Br)C(Br)(C(C)(C)C)OP1(=O)c1ccccc1 (stereo not given) | > 100 µM (inactive) | – | > 100 µM (inactive) | > 100 µM (inactive) | > 100 µM (inactive) | > 100 µM (inactive) | > 100 µM (inactive) | > 100 µM (inactive) | > 100 µM (inactive) | – | > 100 µM (inactive) | > 100 µM (inactive) | > 100 µM (inactive) | > 100 µM (inactive) | > 100 µM (inactive) | > 100 µM (inactive) | > 100 µM (inactive) | > 100 µM (inactive)
19 | COc1cc(/C=C(\NC(=O)c2ccccc2)c2nc3ccc4c(c3[nH]2)C(=O)c2ccccc2C4=O)cc(OC)c1OC | 13.1 µM (inactive) | > 100 µM (inactive) | 38.1 µM (inactive) | > 100 µM (inactive) | 28 µM (inactive) | 69.3 µM (inactive) | 22.9 µM (inactive) | 44 µM (inactive) | 8.91 µM (inactive) | 0.687 µM (active) | 50.5 µM (inactive) | – | > 100 µM (inactive) | – | – | – | – | –
20 | COc1ccccc1-c1cc(O)c2cc3c(cc2n1)OCO3 | 11.9 µM (inactive) | – | 31.6 µM (inactive) | 80.9 µM (inactive) | 8.65 µM (inactive) | 25.5 µM (inactive) | 22.1 µM (inactive) | > 100 µM (inactive) | – | 18.7 µM (inactive) | 40.8 µM (inactive) | 19.5 µM (inactive) | 40.1 µM (inactive) | – | – | – | – | –
21 | CN(C)Cc1[nH]c2ccccc2c1C(=O)c1ccccc1 | – | > 100 µM (inactive) | > 100 µM (inactive) | > 100 µM (inactive) | 91.6 µM (inactive) | > 100 µM (inactive) | 21.9 µM (inactive) | – | > 100 µM (inactive) | > 100 µM (inactive) | > 100 µM (inactive) | 86.9 µM (inactive) | 99.1 µM (inactive) | – | – | – | – | –
22 | NC1=NN(c2ccccc2)C(=O)C1C(=O)C(=O)NC1C2CC3CC(C2)CC1C3 (stereo not given) | – | > 100 µM (inactive) | > 100 µM (inactive) | > 100 µM (inactive) | > 100 µM (inactive) | > 100 µM (inactive) | – | > 100 µM (inactive) | > 100 µM (inactive) | > 100 µM (inactive) | > 100 µM (inactive) | > 100 µM (inactive) | > 100 µM (inactive) | – | – | – | – | –
